Reference: US20240181081A1, “Compositions and Methods for Treatment of Myotonic Dystrophy Type 1 with CRISPR/SACAS9” (Vertex Pharmaceuticals Incorporated, priority 2021, published 2024)

Key:
[1] = test system: CTG repeat expansion in the 3′ UTR of human DMPK gene; test: DOUBLE-cut screening: CTG repeat excision by loss-of-signal ddPCR in primary DM1 patient myoblasts; type: cell-based; settings: sgRNA pair RNP, mean of upstream and downstream ddPCR assays; for % of CTG repeat excision efficiency by ddPCR (DNA-PKi): 3 μM Compound 6 for 48 hrs; for % of CTG repeat excision efficiency by ddPCR (Vehicle): DMSO 48 hrs
Procedure, shortened: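 Paired upstream/downstream sgRNAs, each as RNP with recombinant SaCas9 (20 pmol protein:60 pmol sgRNA), mixed 1:1 and nucleofected into primary DM1 myoblasts; cells then given DMSO or 3 μM DNA-PKi Compound 6 for 48 hrs. Genomic DNA taken 72 hrs post-nucleofection; excision is mean of upstream and downstream loss-of-signal ddPCR, normalized to DMPK exon 1 reference.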

[2] = test system: CUG RNA foci in primary DM1 patient myoblasts; test: DOUBLE-cut screening: FISH staining of RNA foci in primary DM1 patient myoblasts; type: cell-based, human; settings: sgRNA pair RNP, 72 hrs post nucleofection; for % of CUG foci free nuclei (DNA-PKi): 3 μM Compound 6 for 48 hrs; for % of CUG foci free nuclei (Vehicle): DMSO 48 hrs
Procedure, shortened: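 Primary DM1 patient myoblasts nucleofected with paired upstream/downstream sgRNA–SaCas9 RNPs (20 pmol protein, 60 pmol sgRNA each), then treated 48 hrs with DMSO or 3 μM DNA-PK inhibitor. At 72 hrs post nucleofection, CUG foci stained by Cy3-PNA(CAG)5 FISH with MBNL1 co-staining and quantified by high-content confocal imaging.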

| Substance | % of CTG repeat excision efficiency by ddPCR (DNA-PKi) [1] [%] | % of CTG repeat excision efficiency by ddPCR (Vehicle) [1] [%] | % of CUG foci free nuclei (DNA-PKi) [2] [%] | % of CUG foci free nuclei (Vehicle) [2] [%] |
| --- | --- | --- | --- | --- |
| SaU2 + SaD11: SaCas9 sgRNA pair, SEQ ID NOs: 2 and 19 (guide 1 ACTCAGTCTTCCAACGGGGCCC; guide 2 CAAAACGTGGATTGGGGTTGTT; listed as DNA, chemistry not fully specified) | 52.97 | 26.90 | 73.23 | 48.38 |
| SaU2 + SaD19: SaCas9 sgRNA pair, SEQ ID NOs: 2 and 27 (guide 1 ACTCAGTCTTCCAACGGGGCCC; guide 2 AGGACCCCCACCCCCGACCCTC; listed as DNA, chemistry not fully specified) | 56.62 | 49.08 | 80.94 | 62.27 |
| SaU4 + SaD12: SaCas9 sgRNA pair, SEQ ID NOs: 4 and 20 (guide 1 CCAGTTCACAACCGCTCCGAGC; guide 2 TCAGTGCATCCAAAACGTGGAT; listed as DNA, chemistry not fully specified) | 59.06 | 42.13 | 87.22 | 82.10 |
| SaU4 + SaD15: SaCas9 sgRNA pair, SEQ ID NOs: 4 and 23 (guide 1 CCAGTTCACAACCGCTCCGAGC; guide 2 GACAATAAATACCGAGGAATGT; listed as DNA, chemistry not fully specified) | 58.99 | 39.70 | 85.73 | 79.84 |
| SaU4 + SaD19: SaCas9 sgRNA pair, SEQ ID NOs: 4 and 27 (guide 1 CCAGTTCACAACCGCTCCGAGC; guide 2 AGGACCCCCACCCCCGACCCTC; listed as DNA, chemistry not fully specified) | 50.21 | 36.41 | 80.80 | 67.92 |
| SaU1 + SaD13: SaCas9 sgRNA pair, SEQ ID NOs: 1 and 21 (guide 1 GCCCCGGAGTCGAAGACAGTTC; guide 2 CCCAACAACCCCAATCCACGTT; listed as DNA, chemistry not fully specified) | 54.59 | 25.67 | 74.44 | 35.75 |
| SaU2 + SaD7: SaCas9 sgRNA pair, SEQ ID NOs: 2 and 15 (guide 1 ACTCAGTCTTCCAACGGGGCCC; guide 2 GGGGCGCGGGATCCCCGAAAAA; listed as DNA, chemistry not fully specified) | 52.12 | 29.62 | 76.74 | 49.05 |
| SaU4 + SaD17: SaCas9 sgRNA pair, SEQ ID NOs: 4 and 25 (guide 1 CCAGTTCACAACCGCTCCGAGC; guide 2 TTTATTCGCGAGGGTCGGGGGT; listed as DNA, chemistry not fully specified) | 55.51 | 35.01 | 79.31 | 60.96 |
| SaU1 + SaD6: SaCas9 sgRNA pair, SEQ ID NOs: 1 and 14 (guide 1 GCCCCGGAGTCGAAGACAGTTC; guide 2 CTTTTGCCAAACCCGCTTTTTC; listed as DNA, chemistry not fully specified) | 49.69 | 32.51 | 70.98 | 31.66 |
| SaU8 + SaD12: SaCas9 sgRNA pair, SEQ ID NOs: 8 and 20 (guide 1 GGCTCGAAGGGTCCTTGTAGCC; guide 2 TCAGTGCATCCAAAACGTGGAT; listed as DNA, chemistry not fully specified) | 55.46 | 36.64 | 85.37 | 76.92 |
| SaU4 + SaD7: SaCas9 sgRNA pair, SEQ ID NOs: 4 and 15 (guide 1 CCAGTTCACAACCGCTCCGAGC; guide 2 GGGGCGCGGGATCCCCGAAAAA; listed as DNA, chemistry not fully specified) | 55.59 | 39.17 | 78.79 | 58.50 |
| SaU3 + SaD3: SaCas9 sgRNA pair, SEQ ID NOs: 3 and 11 (guide 1 ACTCCGGGGCCCCGTTGGAAGA; guide 2 CAACGATAGGTGGGGGTGCGTG; listed as DNA, chemistry not fully specified) | 57.46 | 36.25 | 78.72 | 51.28 |
| SaU1 + SaD12: SaCas9 sgRNA pair, SEQ ID NOs: 1 and 20 (guide 1 GCCCCGGAGTCGAAGACAGTTC; guide 2 TCAGTGCATCCAAAACGTGGAT; listed as DNA, chemistry not fully specified) | 63.43 | 37.77 | 84.94 | 69.78 |
| SaU4 + SaD6: SaCas9 sgRNA pair, SEQ ID NOs: 4 and 14 (guide 1 CCAGTTCACAACCGCTCCGAGC; guide 2 CTTTTGCCAAACCCGCTTTTTC; listed as DNA, chemistry not fully specified) | 48.99 | 28.23 | 67.36 | 37.76 |
| SaU7 + SaD5: SaCas9 sgRNA pair, SEQ ID NOs: 7 and 13 (guide 1 CGCGGCCGGCGAACGGGGCTCG; guide 2 GGGTTTGGCAAAAGCAAATTTC; listed as DNA, chemistry not fully specified) | 69.71 | 50.76 | 82.27 | 64.24 |
| SaU2 + SaD2: SaCas9 sgRNA pair, SEQ ID NOs: 2 and 10 (guide 1 ACTCAGTCTTCCAACGGGGCCC; guide 2 TCGGCCAGGCTGAGGCCCTGAC; listed as DNA, chemistry not fully specified) | 56.39 | 52.26 | 83.29 | 81.76 |
| SaU8 +SaD3: SaCas9 sgRNA pair, SEQ ID NOs: 8 and 11 (guide 1 GGCTCGAAGGGTCCTTGTAGCC; guide 2 CAACGATAGGTGGGGGTGCGTG; listed as DNA, chemistry not fully specified) | 59.28 | 48.19 | 82.41 | 57.67 |
| SaU4 + SaD3: SaCas9 sgRNA pair, SEQ ID NOs: 4 and 11 (guide 1 CCAGTTCACAACCGCTCCGAGC; guide 2 CAACGATAGGTGGGGGTGCGTG; listed as DNA, chemistry not fully specified) | 56.38 | 44.46 | 80.39 | 60.98 |
| SaU3 + SaD12: SaCas9 sgRNA pair, SEQ ID NOs: 3 and 20 (guide 1 ACTCCGGGGCCCCGTTGGAAGA; guide 2 TCAGTGCATCCAAAACGTGGAT; listed as DNA, chemistry not fully specified) | 59.96 | 38.05 | 83.21 | 74.46 |
| SaU3 + SaD5: SaCas9 sgRNA pair SaU3 and SaD5; table prints SEQ ID NOS: 2 and 13 (guide 1 ACTCCGGGGCCCCGTTGGAAGA; guide 2 GGGTTTGGCAAAAGCAAATTTC; listed as DNA, chemistry not fully specified) | 60.74 | 43.61 | 84.63 | 73.56 |
| SaU3 + SaD6: SaCas9 sgRNA pair, SEQ ID NOs: 3 and 14 (guide 1 ACTCCGGGGCCCCGTTGGAAGA; guide 2 CTTTTGCCAAACCCGCTTTTTC; listed as DNA, chemistry not fully specified) | 50.32 | 24.10 | 64.84 | 31.37 |
